Values of other authors in patent US20050058670A1, “Oral itraconazole composition which is not affected by ingested food and process for preparing same” (priority 2003, published 2005).

solubility in water: less than 1 μg/ml
Structure (SMILES): CCC(C)n1ncn(-c2ccc(N3CCN(c4ccc(OCC5COC(Cn6cncn6)(c6ccc(Cl)cc6Cl)O5)cc4)CC3)cc2)c1=O (stereo not shown) [Itraconazole]
